# Source: PubChem BioAssay (NCI)
#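 Protocol summary: plate cells (96-well), add compound at 5 concentrations, incubate 48 h, interpolate endpoints linearly. The concentration for full growth arrest is given as TGI.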
# Key:
# Assay in all cases: inhibition of tumour cell growth, NCI panel, 48 h
# HCT-116 colon = tested on: HCT-116 colon
# SF-268 CNS = tested on: SF-268 CNS
# K-562 leukemia = tested on: K-562 leukemia
# PC-3 prostate = tested on: PC-3 prostate
# UO-31 renal = tested on: UO-31 renal
# CAKI-1 renal = tested on: CAKI-1 renal
# NCI-H522 lung = tested on: NCI-H522 lung
# HS 578T breast = tested on: HS 578T breast
# T-47D breast = tested on: T-47D breast
# LOX IMVI melanoma = tested on: LOX IMVI melanoma
# BT-549 breast = tested on: BT-549 breast
# MCF7 breast = tested on: MCF7 breast
# UACC-62 melanoma = tested on: UACC-62 melanoma
# A549 NSCLC = tested on: A549 NSCLC
# OVCAR-4 ovarian = tested on: OVCAR-4 ovarian
# HL-60(TB) leukemia = tested on: HL-60(TB) leukemia
# SNB-19 CNS = tested on: SNB-19 CNS
# RXF 393 renal = tested on: RXF 393 renal
# OVCAR-3 ovarian = tested on: OVCAR-3 ovarian
# SF-295 CNS = tested on: SF-295 CNS
# NCI-H23 lung = tested on: NCI-H23 lung
# SK-MEL-2 melanoma = tested on: SK-MEL-2 melanoma
# NCI/ADR-RES ovarian = tested on: NCI/ADR-RES ovarian
# SK-OV-3 ovarian = tested on: SK-OV-3 ovarian
# NCI-H460 lung = tested on: NCI-H460 lung
# 786-0 renal = tested on: 786-0 renal
# COLO 205 colon = tested on: COLO 205 colon
# TK-10 renal = tested on: TK-10 renal
# DU-145 prostate = tested on: DU-145 prostate
# NCI-H226 lung = tested on: NCI-H226 lung
# HCT-15 colon = tested on: HCT-15 colon
# MDA-MB-231 breast = tested on: MDA-MB-231 breast
# EKVX NSCLC = tested on: EKVX NSCLC
# CCRF-CEM leukemia = tested on: CCRF-CEM leukemia
# MALME-3M melanoma = tested on: MALME-3M melanoma
# MDA-N = tested on: MDA-N
# UACC-257 melanoma = tested on: UACC-257 melanoma
# M14 melanoma = tested on: M14 melanoma
# SF-539 CNS = tested on: SF-539 CNS
# HOP-62 NSCLC = tested on: HOP-62 NSCLC
# U251 CNS = tested on: U251 CNS
# SR leukemia = tested on: SR leukemia
# SW-620 colon = tested on: SW-620 colon
# A498 renal = tested on: A498 renal
# MOLT-4 leukemia = tested on: MOLT-4 leukemia
# SK-MEL-5 melanoma = tested on: SK-MEL-5 melanoma
# KM12 colon = tested on: KM12 colon
# SN12C renal = tested on: SN12C renal
# HT29 colon = tested on: HT29 colon
# MDA-MB-435 = tested on: MDA-MB-435
# IGROV1 ovarian = tested on: IGROV1 ovarian
# RPMI-8226 leukemia = tested on: RPMI-8226 leukemia
# SK-MEL-28 melanoma = tested on: SK-MEL-28 melanoma
# ACHN renal = tested on: ACHN renal
# HOP-92 NSCLC = tested on: HOP-92 NSCLC
# OVCAR-5 ovarian = tested on: OVCAR-5 ovarian
# SNB-75 CNS = tested on: SNB-75 CNS
# OVCAR-8 ovarian = tested on: OVCAR-8 ovarian
# HCC-2998 colon = tested on: HCC-2998 colon
structure (smiles),measurement,setting,value
COc1cc(-c2ccccc2N)c2cccnc2c1OC,TGI,HCT-116 colon,11.9 µM
same,TGI,SF-268 CNS,12.8 µM
same,TGI,K-562 leukemia,20.5 µM
same,TGI,PC-3 prostate,22 µM
same,TGI,UO-31 renal,15 µM
same,TGI,CAKI-1 renal,10.2 µM
same,TGI,NCI-H522 lung,17.9 µM
same,TGI,HS 578T breast,11.9 µM
same,TGI,T-47D breast,13.7 µM
same,TGI,LOX IMVI melanoma,15.3 µM
same,TGI,BT-549 breast,22.2 µM
same,TGI,MCF7 breast,18.3 µM
same,TGI,UACC-62 melanoma,24.2 µM
same,TGI,A549 NSCLC,16.1 µM
same,TGI,OVCAR-4 ovarian,19.6 µM
same,TGI,HL-60(TB) leukemia,16.5 µM
same,TGI,SNB-19 CNS,18.6 µM
same,TGI,RXF 393 renal,34.6 µM
same,TGI,OVCAR-3 ovarian,16.1 µM
same,TGI,SF-295 CNS,7.18 µM
same,TGI,NCI-H23 lung,19.6 µM
same,TGI,SK-MEL-2 melanoma,26.5 µM
same,TGI,NCI/ADR-RES ovarian,35.9 µM
same,TGI,SK-OV-3 ovarian,21.9 µM
same,TGI,NCI-H460 lung,43.4 µM
same,TGI,786-0 renal,14.9 µM
same,TGI,COLO 205 colon,22.1 µM
same,TGI,TK-10 renal,23.7 µM
same,TGI,DU-145 prostate,10.5 µM
same,TGI,NCI-H226 lung,26.6 µM
same,TGI,HCT-15 colon,16.1 µM
same,TGI,MDA-MB-231 breast,20.6 µM
same,TGI,EKVX NSCLC,13.8 µM
same,TGI,CCRF-CEM leukemia,22.5 µM
same,TGI,MALME-3M melanoma,30.4 µM
same,TGI,MDA-N,20.2 µM
same,TGI,UACC-257 melanoma,24.8 µM
same,TGI,M14 melanoma,19.3 µM
same,TGI,SF-539 CNS,21.6 µM
same,TGI,HOP-62 NSCLC,19 µM
same,TGI,U251 CNS,17.7 µM
same,TGI,SR leukemia,7.25 µM
same,TGI,SW-620 colon,17.4 µM
same,TGI,A498 renal,27.2 µM
same,TGI,MOLT-4 leukemia,7.94 µM
same,TGI,SK-MEL-5 melanoma,26.3 µM
same,TGI,KM12 colon,24.3 µM
same,TGI,SN12C renal,17.3 µM
same,TGI,HT29 colon,16.3 µM
same,TGI,MDA-MB-435,21.1 µM
same,TGI,IGROV1 ovarian,11.1 µM
same,TGI,RPMI-8226 leukemia,14.8 µM
same,TGI,SK-MEL-28 melanoma,32.8 µM
same,TGI,ACHN renal,15.2 µM
same,TGI,HOP-92 NSCLC,22.3 µM
CCn1c(SCC(=O)NNC(=S)NC)nc2ccccc2c1=O,TGI,OVCAR-5 ovarian,> 100 µM
same,TGI,HCT-116 colon,> 100 µM
same,TGI,SF-268 CNS,> 100 µM
same,TGI,K-562 leukemia,> 100 µM
same,TGI,SNB-75 CNS,> 100 µM
same,TGI,PC-3 prostate,> 100 µM
same,TGI,OVCAR-8 ovarian,> 100 µM
same,TGI,UO-31 renal,> 100 µM
same,TGI,CAKI-1 renal,44.2 µM
same,TGI,NCI-H522 lung,> 100 µM
same,TGI,HS 578T breast,> 100 µM
same,TGI,T-47D breast,> 100 µM
same,TGI,LOX IMVI melanoma,> 100 µM
same,TGI,BT-549 breast,> 100 µM
same,TGI,MCF7 breast,> 100 µM
same,TGI,UACC-62 melanoma,> 100 µM
same,TGI,A549 NSCLC,> 100 µM
same,TGI,OVCAR-4 ovarian,> 100 µM
same,TGI,HL-60(TB) leukemia,> 100 µM
same,TGI,SNB-19 CNS,> 100 µM
same,TGI,RXF 393 renal,> 100 µM
same,TGI,OVCAR-3 ovarian,> 100 µM
same,TGI,SF-295 CNS,> 100 µM
same,TGI,NCI-H23 lung,> 100 µM
same,TGI,SK-MEL-2 melanoma,> 100 µM
same,TGI,NCI/ADR-RES ovarian,> 100 µM
same,TGI,SK-OV-3 ovarian,> 100 µM
same,TGI,NCI-H460 lung,45.7 µM
same,TGI,786-0 renal,> 100 µM
same,TGI,COLO 205 colon,> 100 µM
same,TGI,TK-10 renal,> 100 µM
same,TGI,DU-145 prostate,> 100 µM
same,TGI,NCI-H226 lung,> 100 µM
same,TGI,HCT-15 colon,> 100 µM
same,TGI,MDA-MB-231 breast,> 100 µM
same,TGI,EKVX NSCLC,> 100 µM
same,TGI,CCRF-CEM leukemia,> 100 µM
same,TGI,MALME-3M melanoma,> 100 µM
same,TGI,MDA-N,> 100 µM
same,TGI,UACC-257 melanoma,> 100 µM
same,TGI,M14 melanoma,> 100 µM
same,TGI,SF-539 CNS,> 100 µM
same,TGI,HOP-62 NSCLC,> 100 µM
same,TGI,U251 CNS,> 100 µM
same,TGI,SR leukemia,> 100 µM
same,TGI,HCC-2998 colon,> 100 µM
same,TGI,SW-620 colon,> 100 µM
same,TGI,A498 renal,> 100 µM
same,TGI,MOLT-4 leukemia,> 100 µM
same,TGI,SK-MEL-5 melanoma,> 100 µM
same,TGI,KM12 colon,> 100 µM
same,TGI,SN12C renal,> 100 µM
same,TGI,MDA-MB-435,> 100 µM
same,TGI,IGROV1 ovarian,> 100 µM
same,TGI,RPMI-8226 leukemia,> 100 µM
same,TGI,SK-MEL-28 melanoma,> 100 µM
same,TGI,ACHN renal,> 100 µM
